From patent US20150231236A1, “METHODS FOR TREATING PATIENTS WITH HYPERCHOLESTEROLEMIA THAT IS NOT ADEQUATELY CONTROLLED BY MODERATE-DOSE STATIN THERAPY” (Regeneron Pharmaceuticals, Inc., priority 2014, published 2015)

Columns and labels:
[1] = test system: patients with hypercholesterolemia at high CV risk not adequately controlled with atorvastatin (20 mg or 40 mg); experiment: Example 2: randomized, double-blind trial, lipid efficacy of mAb316P add-on to atorvastatin vs EZE add-on, atorvastatin dose doubling or switch to rosuvastatin; format: in vivo, human; details: for reduced LDL-C levels by: week 24, add-on mAb316P
Procedure, shortened: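 Patients on atorvastatin 20 or 40 mg randomized to mAb316P 75 mg SC Q2W (raised to 150 mg from week 12 per CV risk) or blinded comparators, over 24 weeks. Endpoint: percent change in calculated LDL-C (Friedewald; beta quantification if TG >400 mg/dL) from baseline to week 24.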

[2] = test system: patients with hypercholesterolemia at high CV risk not adequately controlled with rosuvastatin (10 mg or 20 mg); experiment: Example 3: safety, treatment-emergent adverse events in pooled treatment groups; details: mAb316P group
[3] = ITT Population, Comparison 1: mAb316P + atorva 20 mg arm vs. atorva 40 mg arm
[4] = ITT Population, Comparison 2: mAb316P + atorva 20 mg arm vs. EZE + atorva 20 mg arm
[5] = ITT Population, Comparison 3: mAb316P + atorva 40 mg arm vs. atorva 80 mg arm
[6] = ITT Population, Comparison 4: mAb316P + atorva 40 mg arm vs. rosuva 40 mg arm
[7] = ITT Population, Comparison 5: mAb316P + atorva 40 mg arm vs. EZE + atorva 40 mg arm
[8] = mITT Population, Comparison 1: mAb316P + atorva 20 mg arm vs. atorva 40 mg arm
[9] = mITT Population, Comparison 2: mAb316P + atorva 20 mg arm vs. EZE + atorva 20 mg arm
[10] = mITT Population, Comparison 3: mAb316P + atorva 40 mg arm vs. atorva 80 mg arm
[11] = mITT Population, Comparison 4: mAb316P + atorva 40 mg arm vs. rosuva 40 mg arm
[12] = mITT Population, Comparison 5: mAb316P + atorva 40 mg arm vs. EZE + atorva 40 mg arm

mAb316P: human anti-PCSK9 antibody; heavy chain SEQ ID NO:5, light chain SEQ ID NO:9
Delta, percent change from baseline of Apo B to week 24 [1, 3]: −29.3% | Delta, percent change from baseline of Apo-B to week 12 [1, 3]: −31.5% | Delta, percent change from baseline of HDL-C to week 24 [1, 3]: 2.9% | Delta, percent change from baseline of Lp(a) to week 24 [1, 3]: −3.4% | Delta, percent change from baseline of Non-HDL-C to week 12 [1, 3]: −33.5% | Delta, percent change from baseline of Total-C to week 12 [1, 3]: −22.6% | Delta, percent change from baseline of Total-C to week 24 [1, 3]: −23.1% | Delta, percent change from baseline of calculated LDL-C to week 12 [1, 3]: −39.8% | Delta, percent change from baseline of calculated LDL-C to week 24 [1, 3]: −39.1% | Delta, percent change from baseline of non-HDL-C to week 24 [1, 3]: −30.4% | Odds Ratio, proportion of patients reaching calculated LDL-C < 70 mg/dL at Week 24 [1, 3]: 28.9 | Odds Ratio, proportion of very high CV risk patients reaching calculated LDL-C < 70 mg/dL or high CV risk patients reaching calculated LDL-C < 100 mg/dL at Week 24 [1, 3]: 16.3 | Delta, percent change from baseline of Apo B to week 24 [1, 4]: −23.6% | Delta, percent change from baseline of Apo-B to week 12 [1, 4]: −25.3% | Delta, percent change from baseline of HDL-C to week 24 [1, 4]: 4.9% | Delta, percent change from baseline of Lp(a) to week 24 [1, 4]: −13.0% | Delta, percent change from baseline of Non-HDL-C to week 12 [1, 4]: −23.4% | Delta, percent change from baseline of Total-C to week 12 [1, 4]: −15.8% | Delta, percent change from baseline of Total-C to week 24 [1, 4]: −15.8% | Delta, percent change from baseline of calculated LDL-C to week 12 [1, 4]: −25.8% | Delta, percent change from baseline of calculated LDL-C to week 24 [1, 4]: −23.6% | Delta, percent change from baseline of non-HDL-C to week 24 [1, 4]: −21.6% | Odds Ratio, proportion of patients reaching calculated LDL-C < 70 mg/dL at Week 24 [1, 4]: 4.7 | Odds Ratio, proportion of very high CV risk patients reaching calculated LDL-C < 70 mg/dL or high CV risk patients reaching calculated LDL-C < 100 mg/dL at Week 24 [1, 4]: 3.7 | Delta, percent change from baseline of Apo B to week 24 [1, 5]: −38.4% | Delta, percent change from baseline of Apo-B to week 12 [1, 5]: −26.7% | Delta, percent change from baseline of HDL-C to week 24 [1, 5]: 2.9% | Delta, percent change from baseline of Lp(a) to week 24 [1, 5]: −21.1% | Delta, percent change from baseline of Non-HDL-C to week 12 [1, 5]: −29.3% | Delta, percent change from baseline of Total-C to week 12 [1, 5]: −19.1% | Delta, percent change from baseline of Total-C to week 24 [1, 5]: −28.9% | Delta, percent change from baseline of calculated LDL-C to week 12 [1, 5]: −36.0% | Delta, percent change from baseline of calculated LDL-C to week 24 [1, 5]: −49.2% | Delta, percent change from baseline of non-HDL-C to week 24 [1, 5]: −41.1% | Odds Ratio, proportion of patients reaching calculated LDL-C < 70 mg/dL at Week 24 [1, 5]: 116.8 | Odds Ratio, proportion of very high CV risk patients reaching calculated LDL-C < 70 mg/dL or high CV risk patients reaching calculated LDL-C < 100 mg/dL at Week 24 [1, 5]: 92.5 | Delta, percent change from baseline of Apo B to week 24 [1, 6]: −30.9% | Delta, percent change from baseline of Apo-B to week 12 [1, 6]: −22.2% | Delta, percent change from baseline of HDL-C to week 24 [1, 6]: 2.0% | Delta, percent change from baseline of Lp(a) to week 24 [1, 6]: −25.9% | Delta, percent change from baseline of Non-HDL-C to week 12 [1, 6]: −22.5% | Delta, percent change from baseline of Total-C to week 12 [1, 6]: −15.4% | Delta, percent change from baseline of Total-C to week 24 [1, 6]: −21.9% | Delta, percent change from baseline of calculated LDL-C to week 12 [1, 6]: −27.3% | Delta, percent change from baseline of calculated LDL-C to week 24 [1, 6]: −32.6% | Delta, percent change from baseline of non-HDL-C to week 24 [1, 6]: −30.2% | Odds Ratio, proportion of patients reaching calculated LDL-C < 70 mg/dL at Week 24 [1, 6]: 13.2 | Odds Ratio, proportion of very high CV risk patients reaching calculated LDL-C < 70 mg/dL or high CV risk patients reaching calculated LDL-C < 100 mg/dL at Week 24 [1, 6]: 6.1 | Delta, percent change from baseline of Apo B to week 24 [1, 7]: −27.6% | Delta, percent change from baseline of Apo-B to week 12 [1, 7]: −15.9% | Delta, percent change from baseline of HDL-C to week 24 [1, 7]: 5.6% | Delta, percent change from baseline of Lp(a) to week 24 [1, 7]: −31.0% | Delta, percent change from baseline of Non-HDL-C to week 12 [1, 7]: −14.8% | Delta, percent change from baseline of Total-C to week 12 [1, 7]: −9.8% | Delta, percent change from baseline of Total-C to week 24 [1, 7]: −18.4% | Delta, percent change from baseline of calculated LDL-C to week 12 [1, 7]: −20.9% | Delta, percent change from baseline of calculated LDL-C to week 24 [1, 7]: −31.4% | Delta, percent change from baseline of non-HDL-C to week 24 [1, 7]: −26.6% | Odds Ratio, proportion of patients reaching calculated LDL-C < 70 mg/dL at Week 24 [1, 7]: 9.9 | Odds Ratio, proportion of very high CV risk patients reaching calculated LDL-C < 70 mg/dL or high CV risk patients reaching calculated LDL-C < 100 mg/dL at Week 24 [1, 7]: 7.9 | patients achieving the more stringent LDL-C goal of <70 mg/dL ([1]; Week 24, calculated LDL-C, across atorvastatin 20 mg and 40 mg regimens): 77-79% | reduced LDL-C levels by ([1]; atorvastatin 20 mg regimen, add-on ezetimibe or doubling of atorvastatin dose): 44.1% | reduced LDL-C levels by ([1]; atorvastatin 40 mg regimen, add-on ezetimibe, doubling of atorvastatin dose or switch to rosuvastatin 40 mg): 54.0% | Delta, percent change from baseline of Apo B to week 24 [1, 8]: −32.6% | Delta, percent change from baseline of calculated LDL-C to week 12 [1, 8]: −44.5% | Delta, percent change from baseline of calculated LDL-C to week 24 [1, 8]: −42.5% | Delta, percent change from baseline of non-HDL-C to week 24 [1, 8]: −33.0% | Odds Ratio, proportion of patients reaching calculated LDL-C < 70 mg/dL at Week 24 [1, 8]: 28.8 | Odds Ratio, proportion of very high CV risk patients reaching calculated LDL-C < 70 mg/dL or high CV risk patients reaching calculated LDL-C < 100 mg/dL at Week 24 [1, 8]: 24.6 | Delta, percent change from baseline of Apo B to week 24 [1, 9]: −25.1% | Delta, percent change from baseline of calculated LDL-C to week 12 [1, 9]: −26.6% | Delta, percent change from baseline of calculated LDL-C to week 24 [1, 9]: −24.9% | Delta, percent change from baseline of non-HDL-C to week 24 [1, 9]: −22.4% | Odds Ratio, proportion of patients reaching calculated LDL-C < 70 mg/dL at Week 24 [1, 9]: 4.8 | Odds Ratio, proportion of very high CV risk patients reaching calculated LDL-C < 70 mg/dL or high CV risk patients reaching calculated LDL-C < 100 mg/dL at Week 24 [1, 9]: 5.0 | Delta, percent change from baseline of Apo B to week 24 [1, 10]: −38.3% | Delta, percent change from baseline of calculated LDL-C to week 12 [1, 10]: −36.3% | Delta, percent change from baseline of calculated LDL-C to week 24 [1, 10]: −52.8% | Delta, percent change from baseline of non-HDL-C to week 24 [1, 10]: −43.6% | Odds Ratio, proportion of patients reaching calculated LDL-C < 70 mg/dL at Week 24 [1, 10]: 162.1 | Odds Ratio, proportion of very high CV risk patients reaching calculated LDL-C < 70 mg/dL or high CV risk patients reaching calculated LDL-C < 100 mg/dL at Week 24 [1, 10]: 130.8 | Delta, percent change from baseline of Apo B to week 24 [1, 11]: −29.8% | Delta, percent change from baseline of calculated LDL-C to week 12 [1, 11]: −27.7% | Delta, percent change from baseline of calculated LDL-C to week 24 [1, 11]: −35.0% | Delta, percent change from baseline of non-HDL-C to week 24 [1, 11]: −32.1% | Odds Ratio, proportion of patients reaching calculated LDL-C < 70 mg/dL at Week 24 [1, 11]: 19.8 | Odds Ratio, proportion of very high CV risk patients reaching calculated LDL-C < 70 mg/dL or high CV risk patients reaching calculated LDL-C < 100 mg/dL at Week 24 [1, 11]: 8.5 | Delta, percent change from baseline of Apo B to week 24 [1, 12]: −26.4% | Delta, percent change from baseline of calculated LDL-C to week 12 [1, 12]: −20.2% | Delta, percent change from baseline of calculated LDL-C to week 24 [1, 12]: −33.4% | Delta, percent change from baseline of non-HDL-C to week 24 [1, 12]: −27.3% | Odds Ratio, proportion of patients reaching calculated LDL-C < 70 mg/dL at Week 24 [1, 12]: 13.9 | Odds Ratio, proportion of very high CV risk patients reaching calculated LDL-C < 70 mg/dL or high CV risk patients reaching calculated LDL-C < 100 mg/dL at Week 24 [1, 12]: 10.8 | TEAE influenza [2]: 4 patients | TEAE upper respiratory tract infection [2]: 6 patients | TEAE urinary tract infection [2]: 4 patients
